Patent US6706754B2, “Reversed amidines and methods of using for treating, preventing, or inhibiting leishmaniasis” (The United States of America as represented by the …, priority 2000, dated 2004)

Experiments:
[1] = tested on: L. mexicana infected macrophages; experiment: Infected macrophage assay, L. mexicana; format: cell-based; details: for Macrophage IC50 L. mexicana: J774.G8 mouse macrophages, 72 hours, 33° C., number of infected macrophages inhibited by 50%
Method: The susceptibilities of L. mexicania infected macrophages to candidate compounds were determined by the following assay.
A one week old, confluent culture of J774.G8 mouse macrophages was washed three times with Hank's Balanced Salt Solution (HBSS) without calcium and magnesium (Sigma, St. Louis, Mo.). The J774.G8 mouse macrophages are a continuous cell line that have been cited in the literature as supporting continuous and intracellular growth of various Leishmania sp. and they have been used for drug assays against intracellular parasites, Trypanosoma cruzi and Leishmania sp. See Alcina, A., et al. (1988) Antimicrobial Agents & Chemotherapy. 32(9):1412-5; Mendez, S., et al. (1996) International Journal for Parasitology 26(6):619-22; Hodgkinson, V. H., et al. (1996) Experimental Parasitology 83(1):94-105; and Chang, K. P. (1980) Science 209(4462): 1240-42, which are herein incorporated by reference.
The macrophages were then incubated at 37° C. in a humidified 5% CO2 incubator for 15 minutes with a Trypsin-EDTA (0.05% Trypsin, 0.53 mM EDTA 4Na) solution (GIBCO BRL, Grand Island, N.Y.). The macrophages were then detached with a cell scraper and suspended by vigorous pipetting. The macrophages were then mixed with a late log phase culture of L. mexicana promastigotes to yield a solution comprising about 5×10^5 macrophages per ml and about 25×10^5 promastigotes per ml in DMEM (pH 7.4) supplemented with 10% heat inactivated fetal calf serum comprising penicillin (50 units/ml) and streptomycin (50 μg/ml).
The macrophage-parasite mixture was then pipetted into 96-well flat-bottom plates (Costar, Cambridge, Mass.) at 200 μl per well. Infection and attachment of the macrophages was allowed to occur over a period of about 48 hours at 33° C. in a humidified 5% CO2 incubator. The wells were washed three times with HBSS to remove extracellular parasites. Each well was then treated with serial dilutions of a given candidate compound in DMEM.
The treated plate was incubated for about 72 hours at 33° C. in a humidified 5% CO2 incubator. The macrophages in each well were detached into the DMEM used for the incubation by pipetting and scraping with the tip of a microliter pipettor. 75 μl of the cell suspension was transferred to a cytospin funnel and the cells were centrifuged onto microscope slides at 800 rpm for 5 minutes using a Cytospin centrifuge (Shandon, Pittsburgh, Pa.).
The slides were air dried and then fixed in methanol for 5 seconds. After the methanol evaporated, the slides were stained with 5% Giemsa stain (Fisher, Suwanee, Ga.) in phosphate buffer comprising 3.1 mM potassium phosphate dibasic and 8.3 mM sodium phosphate monobasic for 45 minutes. After thorough washing with flowing tap water, the slides were air dried and then viewed by oil immersion microscopy to determine percentage of infected cells. A cell was considered to be infected if it comprised one or more amastigote with a visible parasite nucleus and kinetoplast. Counting parasites and counting infected cells provided similar results when determining IC50 values.
The IC50 values (the concentration of the compound that inhibited the number of infected macrophages by 50%) were determined with the software program TableCurve (SPSS Science, Chicago, Ill.) using the following dose-response equation: y=a+b/(1+(x/c)^d), where x=the drug concentration, y=absorbance at 490 nm, a=upper asymptote, b=slope, c=IC50 and d=lower asymptote. FIG. 3 provides the graphical data obtained for compound 1DWB667 as an example.

[2] = tested on: L. donovani axenic amastigote-like parasites; experiment: Axenic amastigote assay (CellTiter 96 tetrazolium dye growth assay); format: cell-based; details: 72 hours, 37° C., pH 5.5, concentration that inhibited parasite growth by 50%
Method: The growth susceptibilities of L. donovani axenic amastigote-like parasites to the candidate compounds were measured in a three day assay using the tetrazolium dye-based CellTiter 96 Aqueous Non-Radioactive Cell Proliferation Assay Kit (Promega, Madison, Wis.) according to Werbovetz, K., et al. (1999) Mol. Biochem. Parasitol. 98:53-65, which is herein incorporated by reference. Pentamidine, at a starting concentration of 100 μM, and serial dilutions thereof were used as controls. Specifically, L. donovani axenic amastigotes, as described by Joshi, M. et al. (1993) Mol. Biochem. Parasitol. 58:345-354, which is herein incorporated by reference, were seeded at 10^6 cells/ml in 96-well flat-bottomed plates (Costar, Cambridge, Mass.) and maintained as axenic amastigote-like forms by serial passage at 37° C. in a humid atmosphere comprising 5% CO2 using a slightly modified potassium-based version of the medium described by Joshi, M. et al. (1993) in the presence or absence of a given candidate compound. The medium comprised 15 mM KCl, […] KH2PO4, 10 mM K2HPO4, 0.5 mM MgSO4, and 24 mM NaHCO3 to give a final potassium concentration of […]. The medium was supplemented with 20% fetal bovine serum and was brought to pH 5.5. The final volume in each well was 60 μl. The plates were incubated at 37° C. for 72 hours, then 12 μl of the aqueous CellTiter solution from the kit (Promega, Madison, Wis.) was added to each well according to the instructions of the manufacturer. The plates were returned to the incubator for about 2 to about 3 hours. Then the absorbance of each well was measured at 490 nm using a SpectraMax Plus microplate reader (Molecular Devices, Sunnyvale, Calif.).
The results for each candidate compound may be found in the FIG. 1. The IC50 values (the concentration of the agent that inhibited parasite growth by 50%) for each candidate compound were determined for axenic amastigotes with the aid of the program SoftMax Pro (Molecular Devices, Sunnyvale, Calif.) using the following dose response equation: y=((a−d)/1+(x/c)^b)+d, wherein x=drug concentration; y=absorbance at 490 nm; a=upper asymptote; b=slope; c=IC50; and d=lower asymptote. FIG. 2 is the graphical data obtained for compound 1DWB667 as an example.

L. donovani L82 = experiment: In vivo assay, murine visceral model of leishmaniasis; design: species or system Leishmania donovani; details: Table 4; BALB/c mice; 15 μmol/kg i.v. × 5

With “2,5-Bis[2-methyl-4-(5-methyl-2-pyridylimino)aminophenyl]furan [DB 710]” the “Macrophage IC50 L. mexicana” value [1] was 0.094 µg/mL, the “Macrophage IC50 L. mexicana” value ([1]; listed as DB710) was “about 0.1 μg/ml” and the “Axenic Amastigote IC50 L. donovani” value [2] was 0.242 µg/mL. For the same substance, the “Axenic Amastigote IC50 L. donovani” value ([2]; listed as DB710) was “about 0.2 μg/ml”.
For “2,5-Bis[2-methoxy-4-(2-pyridylimino)aminophenyl]furan [DB 709]”, the “Macrophage IC50 L. mexicana” value [1] was 0.127 µg/mL, the “Macrophage IC50 L. mexicana” value ([1]; listed as DB709) was “about 0.1 μg/ml” and the “Axenic Amastigote IC50 L. donovani” value [2] was 0.157 µg/mL. The “Axenic Amastigote IC50 L. donovani” value ([2]; listed as DB709) was “about 0.2 μg/ml”.
With “2,5-Bis[4-(2-pyridylimino)aminophenyl]furan [1DWB 667]” the “Macrophage IC50 L. mexicana” value [1] was 1.37 µg/mL, the “Macrophage IC50 L. mexicana” value ([1]; listed as DB667) was “about 1.4 μg/ml” and the “Axenic Amastigote IC50 L. donovani” value [2] was 0.550 µg/mL.
For “2,5-Bis[2-methyl-4-(2-pyridylimino)aminophenyl]furan [DB 702]”, the “Macrophage IC50 L. mexicana” value [1] was 0.220 µg/mL, the “Axenic Amastigote IC50 L. donovani” value [2] was 0.174 µg/mL and the “Axenic Amastigote IC50 L. donovani” value ([2]; listed as DB702) was “about 0.2 μg/ml”.
With “2,5-Bis[2-chloro-4-(2-pyridylimino)aminophenyl]furan [DB 712]” the “Macrophage IC50 L. mexicana” value [1] was 0.689 µg/mL, the “reduction of parasite burden in L. mexicana infected macrophages (in words)” value ([1]; in vitro, cutaneous strain) was “least effective in reducing parasite burden” and the “Axenic Amastigote IC50 L. donovani” value [2] was 0.308 µg/mL. For the same substance, the “% inhibition ± S.E.M.” value (L. donovani L82) was 15.33 ± 2.7%.
